Measurements: patent US7157256B2, “Method for producing para-hydroxystyrene and other multifunctional aromatic compounds using two-phase extractive fermentation” (E. I. du Pont de Nemours and Company, priority 2003, dated 2007)
Where “and” joins values, the source holds several entries; their conditions need not be identical. Equal values may be shown once.

Tests used:
[1] = system: P. putida strain S12 (ATCC No. 700801); test: Effect of pHS on the growth of Pseudomonas putida; format: cell-based; conditions: for Growth Rate, %: percentage of growth without pHS
Experimental: This study was done using P. putida strain S12 (ATCC No. 700801), obtained from the American Type Culture Collection. This P. putida strain was grown at 30° C. in 20 mL of LB medium containing 0.25% glucose and 10 mM MgSO4 in a 125 mL baffled flask until stationary phase was achieved. Aliquots from this stationary phase culture were plated on LB agar plates containing 0.25% glucose, 10 mM MgSO4, and 1 g/L pHS, and incubated at 30° C. for several days. Colonies from these plates were streaked on identical plates and grown as described above. An individual colony from these plates was used to inoculate 20 mL of liquid LB medium containing 0.5% glucose, 10 mM MgSO4 and 1 g/L pHS. This culture was grown in a 125 mL baffled flask at 30° C. and 200 rpm in an incubator shaker until stationary phase was achieved. These stationary phase cells (0.5 mL) were added to 20 mL of a test medium consisting of LB medium, 0.5% glucose, 10 mM MgSO4 and either 0, 1.0, or 1.25 g/L pHS. These cultures were grown in 125 mL baffled flasks at 30° C. and 200 rpm in an incubator shaker. Cell growth in these cultures was monitored by taking aliquots, diluting them with an equal volume of 1,2-propanediol, and measuring the OD at 600 nm. These OD measurements were used to calculate the doubling time and growth rate as a percentage of growth observed in the test medium without pHS.

[2] = system: E. coli TY1 (DGL430); test: Effect of pHCA and pHS on growth and fermentation of E. coli, shake flasks; format: cell-based; conditions: E. coli TY1 shake flask
Experimental: This study was done using E. coli TY1 (DGL430), a tyrosine overproducing strain obtained from OmniGene Bioproducts, Inc. (Cambridge, Mass.). This strain also produces phenylalanine. The seed culture of this strain was propagated in a medium consisting of MgSO4.7H2O (0.5 g/L), (NH4)2SO4 (4 g/L), MOPS (20.9 g/L) and 10 mL of phosphate solution. The pH of the seed medium was adjusted to pH 6.8 and then the medium was steam-sterilized. The phosphate solution contained KH2PO4 (57.3 g/L) and K2HPO4 (110.2 g/L) and was adjusted to pH 6.8. The following solutions were then aseptically added to the seed medium to give the final concentration given in parentheses: thiamine (1 mg/L), glucose (1 g/L), lactose (15 g/L), 5 mL of a trace element solution, and tetracycline (5 mg/L). The trace element solution contained citric acid (10 g/L), CaCl2.2H2O (1.5 g/L), FeSO4.7H2O (5 g/L), ZnSO4.7H2O (0.39 g/L) and CuSO4.5H2O (0.38 g/L). The seed medium was inoculated from a frozen pre-seed culture and was grown in 250 mL baffled flasks in an Innova 4000 incubator shaker (New Brunswick Scientific Co., Edison, N.J.), incubated at 35° C. and 300 rpm for 12–16 h. One milliliter of this seed culture was used to inoculate each of the test cultures.
The test medium was 50 mL of an aqueous solution containing: (NH4)2SO4 (4 g), 1 mL of phosphate solution, MgSO4.7H2O (0.5 g), and MOPS (20.9 g), with the pH adjusted to 7.0. After sterilization of this medium, thiamine (1 mg/L), 5 mL of trace element solution, glucose (2 g/L), lactose (15 g/L), IPTG (0.5 mM), and tetracycline (10 mg/L) were aseptically added to give the final concentration given in parentheses. The 250 mL baffled flasks containing 50 mL of the test medium were inoculated with the seed culture and were incubated at 35° C. and 300 rpm for 42 h in the incubator shaker. Samples of the culture were taken at various times and the optical density at 550 nm (OD550) was measured spectrophotometrically. The pH of these samples was also measured. After completion of the fermentation, the tyrosine and phenylalanine concentrations in the culture were measured using HPLC, as described supra.
This experiment was repeated using pHS in place of pHCA.

[3] = Partition of pHS between organic solvent and aqueous medium, two-phase flask fermentation; format: physicochemical; conditions: 15 h, 35° C.
Experimental: Samples were analyzed for tyrosine, phenylalanine, CA, pHCA, and pHS using reverse-phase chromatography with an Agilent HP1100 HPLC system equipped with an autosampler, diode-array detector, and ChemStation for data acquisition and processing (Agilent Technologies, Inc., Wilmington, Del.). The analyses were done using a 4.6 mm×15 cm Zorbax SB-C18 column (3.5 μm particle size), obtained from Agilent Technologies, Inc., thermostated at 35° C. The samples were run using a flow rate of 1.0 mL/min with an eight-minute solvent gradient from 5% acetonitrile/water, containing 0.1% trifluoroacetic acid, to 80% acetonitrile/water, containing 0.1% trifluoroacetic acid. A diode-array detector set at 210, 260, and 280 nm was used to detect the various compounds at their optimum absorbance wavelength.
The aqueous samples were diluted 1:3 with water, while the organic samples were diluted 1:3 with acetonitrile before injection of 50 μL of the sample into the HPLC. A standard mixture of the analytes was prepared by mixing equal portions of solutions of the individual components, each at a concentration of 1 mg/mL.
The strain used in this study was E. coli WWQ51.1, as described in Example 3. […] The OD550, pH, glucose concentration and the pHS concentration of the aqueous phases were measured as described in Example 3. The organic phases were analyzed for pHS using HPLC, as described supra.

[4] = system: E. coli WWQ51.1; test: Growth of E. coli with added pHS in two-phase fermentation; format: cell-based; conditions: 0.5 mL pHS (10% w/v) added; 20 mL 2-Undecanone; IPTG 0.5 mM
Experimental: The strain used in this study was E. coli WWQ51.1, as described in Example 3. The conditions were similar to those described in Example 3. Eight test cultures were inoculated; six contained 20 mL of 2-undecanone, the other two contained 20 mL of 1-undecanol. A 10% w/v solution of pHS in propylene glycol (0.5 mL), obtained from Sigma-Aldrich, Milwaukee, Wis., was added to two of the cultures containing 2-undecanone, as specified in Table 7.
The cultures were incubated in 250 mL baffled flasks at 35° C. and 300 rpm for 24 h in an incubator shaker. After this time, a sample of the aqueous phase was withdrawn and the pH, OD550, and the concentration of the fermentation products were measured, as described supra. The organic phase was also sampled and the concentration of CA and pHS were determined using HPLC, as described supra.

Which “Doubling Time” value ([1]; pHS 1.0 g/L, pHS-adapted cells, LB medium, 30° C.) does the source give for `C=Cc1ccc(O)cc1` [pHS, para-hydroxystyrene] here?
The value was 118 min.

What about the “Growth Rate, %” value ([1]; pHS 1.0 g/L) of the same molecule?
Its value is 85%.

What about the “Doubling Time” value ([1]; pHS 1.25 g/L) of the same molecule?
The value was 111 min.

And the “Growth Rate, %” value ([1]; pHS 1.25 g/L)?
The value was 90%.

What about the “concentration at which complete inhibition of growth / no growth was observed” value [2] of the same molecule?
The value was 0.4 g/L.

What about the “concentration that inhibited cell growth” value [2] of the same molecule?
The value was 0.2 g/L.

And the “pHS Partition coeff” value ([3]; 20 mL 2-undecanone / 50 mL test medium)?
The value was 20 and 23.

And the “pHS Partition coeff” value ([3]; 20 mL DBE / 50 mL test medium)?
The value was 29 and 30 and 31.

And the “OD550 24 h” value [4]?
Its value is 15.7 and 12.5.
